Publication PMC11324870, “Branched-chain amino acid transaminase 1 confers EGFR-TKI resistance through epigenetic glycolytic activation” (Signal Transduction and Targeted Therapy, 2024)

Biological target: T1, BCAT1 (branched-chain amino acid transaminase 1) (Homo sapiens, UniProt P54687)
T1 construct: recombinant human BCAT1 Protein (Sino Biological, #ME16FE2265)
T1 sequence (P54687 1-386): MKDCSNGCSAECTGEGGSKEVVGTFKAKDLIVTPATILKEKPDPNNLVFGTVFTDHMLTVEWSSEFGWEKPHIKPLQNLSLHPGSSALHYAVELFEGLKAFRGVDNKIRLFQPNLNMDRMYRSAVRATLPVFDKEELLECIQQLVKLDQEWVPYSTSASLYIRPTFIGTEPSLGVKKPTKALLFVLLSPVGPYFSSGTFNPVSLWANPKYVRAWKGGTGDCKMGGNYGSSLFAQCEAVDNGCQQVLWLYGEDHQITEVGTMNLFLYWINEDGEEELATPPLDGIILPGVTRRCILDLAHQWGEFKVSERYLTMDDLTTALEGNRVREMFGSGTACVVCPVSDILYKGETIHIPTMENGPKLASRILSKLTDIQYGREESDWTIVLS
Experiment: coupled fluorescence (resazurin) enzyme activity assay with purified recombinant BCAT1; also CETSA in […] cells
Assay type: biochemical

NCC1(CC(=O)O)CC2CCC1C2 (racemic) [WQQ-345]
IC50: 10.8 mM
